Tested on: Era-His association to 30S ribosomes in S. aureus USA300
Experiment: In vivo ribosome association of Era-His to 30S in S. aureus cells
Format: cell-based, Staphylococcus aureus
Conditions: USA300 (p)ppGpp-null Δera iTET-era-His; 0.05 or 60 μg/ml mupirocin for 15 min
From the text: Upon induction of the stringent response, cellular levels of (p)ppGpp increase, while concentration of GTP drops ([38]). Having observed decreased association of RA-GTPases to ribosomal subunits in vitro, we wanted to examine the interaction under more physiologically relevant conditions. To investigate RA-GTPases interactions with the ribosome in the bacterial cell, we used an era deletion mutant in a community-acquired methicillin-resistant S. aureus (CA-MRSA) USA300 strain that we had previously constructed ([10]). […] To establish whether induction of the stringent response in bacterial cells leads to a decrease in the association of Era to the 30S subunit, the era mutant was complemented with an Atet-inducible 6×His-tagged version of era using the iTET vector. […] Normalized 30S pools were analyzed for associated Era-His using α-His Western immunoblotting (Fig. 4C). Crude lysates sampled prior to loading on the sucrose gradients were also analyzed to ensure equal loading and equal expression of Era-His between samples (see Fig. S5B). […]
FIG 4 Association of Era to the 30S subunit is reduced under stringent conditions. […] RNA content was analyzed at an absorbance of 260 nm. […] Ribosomal subunits were separated, and the amount of Era-His associated in each strain was detected using HRP-conjugated α-His antibodies. […]

C/C(=C\C(=O)OCCCCCCCCC(=O)O)C[C@@H]1OC[C@H](C[C@@H]2O[C@H]2[C@@H](C)[C@H](C)O)[C@@H](O)[C@H]1O [mupirocin] was tested, and the “ribosome association of Era-His after treatment, (p)ppGpp-null strain” value was “decrease is not seen”.

Source: paper PMC8579695, “The Stringent Response Inhibits 70S Ribosome Formation in Staphylococcus aureus by Impeding GTPase-Ribosome Interactions” (mBio, 2021)
